Reference: PMC13083723 (Patterns, 2026)

System: Vero-E6 cells
Test: cells
Format: cell-based
Conditions: Chlorocebus sabaeus, Vero C1008, 24 h, read-out: PL_Result

SMILES	activation at 10 µM [%]
CCOC(=O)c1cc(C#N)c(N2CCC(C(=O)NS(=O)(=O)Cc3ccccc3)CC2)nc1C [SPE_K77060810]	-0.985
N#Cc1ccc(NCCNCC(=O)N2CCC[C@H]2C#N)nc1 [SPE_K77396579]	-14.3
COc1nc(C)nc(Cl)c1NC1=NCCN1 [SPE_K77771411]	-3.03
O=S(=O)(c1cccc2c(O)nccc12)N1CCCNCC1 [SPE_K77793136]	-5.16
c1ccc(CCCCN2CCC(c3ccccc3)CC2)cc1 [SPE_K78061844]	42.6
O=[N+]([O-])c1cncn1CCN1CCOCC1 [SPE_K79145628]	-10.4
Cn1cc(C2=C(c3cn(C4CCN(Cc5ccccn5)CC4)c4ccccc34)C(=O)NC2=O)c2ccccc21 [SPE_K79404599]	-2.44
O=C1C(Cl)=C(N2CCOCC2)C(=O)N1c1ccc(Cl)c(Cl)c1 [SPE_K79555887]	5.74
O=C(c1ccc(CN2CCOCC2)cc1)N1CCN(C2CC2)CC1 [SPE_K79595931]	-2.77
Cc1cc(N2CCCCC2)nc2ccccc12 [SPE_K80021413]	-1.3
CC(C)(O)CC(=O)NCCn1ccc2ncnc(Nc3ccc(Oc4cccc(C(F)(F)F)c4)c(Cl)c3)c21 [SPE_K80343549]	-7.02
c1ccc(C(O[C@@H]2CCCN(CCc3ccc4c(c3)OCO4)C2)c2ccccc2)cc1 [SPE_K80451230]	13
Cc1cccc(-c2n[nH]cc2-c2ccc3ncccc3n2)n1 [SPE_K80480517]	0.32
COc1ccc(NS(=O)(=O)c2ccc(I)cc2)cc1N1CCN(C)CC1 [SPE_K80639402]	17.6
CC(C)n1cnc2c(C(=O)N[C@H]3CN4CCC3CC4)cc(Cl)cc21 [SPE_K80725821]	0.494
CN1Cc2c(C(=O)OC(C)(C)C)ncn2-c2ccsc2C1=O [SPE_K80778372]	4.64
O=C(Nc1ccccc1C(=O)Nc1ccc(CCO)cc1)c1ccc([N+](=O)[O-])cc1 [SPE_K81053848]	-6.64
CC(C)[C@]12O[C@H]1[C@@H]1O[C@]13[C@]1(O[C@H]1C[C@H]1C4=C(CC[C@@]13C)C(=O)OC4)[C@@H]2O [SPE_K81258678]	-5.53
N#CC(c1ccccc1)(c1ccccc1)c1ccccc1Cl [SPE_K81341251]	4.81
O=C(O)c1ccc2c(c1)nc(Nc1cccc(Cl)c1)c1ccncc12 [SPE_K81458380]	1.48
CC(=O)OCC(=O)NCCCOc1cccc(CN2CCCCC2)c1 [SPE_K81855038]	-10.7

SMILES	activation at 10 µM [%]
C=CC(=O)Nc1cc(Nc2nccc(-c3c[nH]c4ccccc34)n2)c(OC)cc1N(C)CCN(C)C [SPE_K81958169]	5.71
Nc1nc(=O)[nH]cc1F [SPE_K82143716]	-8.79
CN(CCCN1c2ccccc2CCc2ccccc21)CC(=O)c1ccc(Cl)cc1 [SPE_K82147103]	-0.728
CC(=O)Nc1ccc(OC[C@](C)(O)C(=O)Nc2ccc([N+](=O)[O-])c(C(F)(F)F)c2)cc1 [SPE_K82164249]	-13.9
O=[N+]([O-])O[C@@H]1CO[C@H]2[C@@H]1OC[C@@H]2O [SPE_K82225283]	-18.1
Cc1cc(C(N)=O)ccc1-n1c(CCC(=O)O)ccc1-c1ccc(-n2ccnc2)cc1 [SPE_K82522873]	-2.92
CNC(=O)[C@H](Cc1ccccc1)NC(=O)[C@H](CC(C)C)[C@H](CSc1cccs1)C(=O)NO [SPE_K82818427]	11.4
C[C@@H](C1=C(CCN(C)C)Cc2ccccc21)c1ccccn1 [SPE_K83192048]	11.3
C#CCN(C)Cc1ccccc1 [SPE_K83597974]	-2.77
C[C@@]12C[C@@]3(O)O[C@@H](O1)[C@]1(COC(=O)c4ccccc4)[C@H]3C[C@@]12O[C@@H]1O[C@H](CO)[C@@H](O)[C@H](O)[C@H]1O [SPE_K83631119]	4.42
COc1ccn2ncc(-c3nc4[nH]nc(NC(=O)c5ccc(F)cc5)c4cc3F)c2c1 [SPE_K84068331]	-16.5
O=C(NCc1ccc(Oc2ccccc2)cc1)c1nc(-c2cc(Br)c(O)c(Br)c2)no1 [SPE_K84892605]	-10.4
Cc1cc(OCC(=O)O)cc(C)c1Cc1ccc(O)c(C(C)C)c1 [SPE_K85406984]	-18.6
O=C(O)c1cc(O)c2ccccc2n1 [SPE_K85872723]	-13
Nc1ccn([C@H]2CC[C@@H](CO)O2)c(=O)n1 [SPE_K85925969]	2.75
CCS(=O)(=O)N1CCC[C@@H]2CN3CCc4cc(OC)ccc4[C@@H]3C[C@@H]21 [SPE_K86600316]	-8.68
O=C(NCC(=O)N1CCCC1)Nc1ccc2cnccc2c1 [SPE_K86718786]	-0.0855
C=CCN1C[C@H](C(=O)N(CCCN(C)C)C(=O)NCC)C[C@@H]2c3cccc4[nH]cc(c34)C[C@H]21 [SPE_K86882815]	9.44
C=C[C@@H]1C[C@]1(NC(=O)[C@@H]1C[C@@H](Oc2ncc(OC)c3ccc(Cl)cc23)CN1C(=O)[C@@H](NC(=O)OC(C)(C)C)C(C)(C)C)C(=O)NS(=O)(=O)C1CC1 [SPE_K87028197]	-0.0254
CCOC(=O)n1ccn(C)c1=S [SPE_K87156652]	-10.8
NNC(=O)c1ccncc1 [SPE_K87202646]	0.348

SMILES	activation at 10 µM [%]
COc1cnc(NS(=O)(=O)c2ccc(N)cc2)nc1 [SPE_K87492696]	-0.356
O=C(Nc1ccc(S(=O)(=O)C(F)(F)F)cc1)C1=CCN(c2ncccc2C(F)(F)F)CC1 [SPE_K87665527]	1.59
COc1ccc(Nc2ncnc3ccc(OC)cc23)cc1 [SPE_K87696786]	-2.62
COc1ccc(CNC(=O)c2sc3nc(C)cc(C)c3c2N)cc1 [SPE_K87727457]	-11.5
N#CCNC(=O)c1ccc(-c2ccnc(Nc3ccc(N4CCOCC4)cc3)n2)cc1 [SPE_K87737963]	7.32
Nc1nnc2[nH]c3ccccc3nc1-2 [SPE_K87932577]	-2.99
NS(=O)(=O)c1cc(C(=O)O)cc(N2CCCC2)c1Oc1ccccc1 [SPE_K87990216]	0.629
Nc1ncnc2c1c(-c1ccc(Cl)cc1)nn2-c1cccc(-c2cnnn2Cc2cccc(-c3ccccc3)c2)c1 [SPE_K88154110]	-7.24
COc1cc(OC)c(OC)cc1C=O [SPE_K88219015]	-0.692
COC(=O)C1=CCCN(C)C1 [SPE_K88646909]	3.55
O=C(NC[C@H](O)CO)c1ccncc1Nc1ccc(I)cc1F [SPE_K89014967]	-12.6
O=C1c2ccccc2C(Cc2ccnc(F)c2)(Cc2ccnc(F)c2)c2ccccc21 [SPE_K89274813]	-6.43
O=C(O)[C@H](Cc1c[nH]c2ccccc12)N1C(=O)c2ccccc2C1=O [SPE_K89391146]	-6.19
COc1ncc2cc(C(=O)Nc3cc(C(=O)NCc4cccc(Cl)c4)ccc3Cl)c(=O)[nH]c2n1 [SPE_K89517477]	-0.459
CCOC(=O)Nc1ccc(NCc2ccc(F)cc2)cc1N [SPE_K89917372]	-6.22
COc1cc2ncn(-c3cc(OCc4ccccc4C(F)(F)F)c(C(N)=O)s3)c2cc1OC [SPE_K90382497]	-7.16
NCC(=O)Nc1ccc(-n2nc(C(F)(F)F)cc2-c2ccc3c(ccc4ccccc43)c2)cc1 [SPE_K90497590]	-14.6
c1ccc(Cn2c(-c3ccc(OC[C@H](C4CCNCC4)n4c(-c5ccccc5)nc5ccccc54)cc3)nc3ccccc32)cc1 [SPE_K90830492]	1.3
CC(C)[N+](C)(CCOC(=O)C1c2ccccc2Oc2ccccc21)C(C)C [SPE_K90885812]	-7.34
CCOC(=O)[C@@H](N)Cc1ccc(O)c(O)c1 [SPE_K90982969]	-3.7
CCCNC(=O)Nc1ccc(Oc2ncnc3cc(OC)c(OC)cc23)cc1Cl [SPE_K90993449]	-9.86

SMILES	activation at 10 µM [%]
Oc1cc(O)cc(/C=C/c2ccc(O)c(O)c2)c1 [SPE_K91509126]	9.23
S=c1[nH]cnc2nc[nH]c12 [SPE_K91601245]	-8.41
Nc1ccn([C@H]2C[C@H](O)[C@@H](CO)O2)c(=O)n1 [SPE_K91822704]	0.471
Nc1nc(OCc2ccccc2)c2nc[nH]c2n1 [SPE_K92041145]	-3.41
C=C(c1ccc(C(=O)O)cc1)c1cc2c(cc1C)C(C)(C)CCC2(C)C [SPE_K92441787]	-8.8
COc1ccc(CCN(C)CCCN2CCc3cc(OC)c(OC)cc3CC2=O)cc1OC [SPE_K92446736]	-9.23
COc1cc2c(cc1NS(=O)(=O)c1ccc(Br)cc1C)n(C)c(=O)n2C [SPE_K92658264]	-2.45
CCC[C@H](N[C@@H](C)C(=O)N1[C@H](C(=O)O)C[C@@H]2CCCC[C@@H]21)C(=O)OCC [SPE_K92731339]	4.37
COc1ccccc1N1CCN(CCN2C(=O)c3ccccc3C(C)(C)C2=O)CC1 [SPE_K93188295]	-15
O=C(NCCN1CCC2(CC1)C(=O)NCN2c1cccc(F)c1)c1ccc2ccccc2c1 [SPE_K93317811]	113
O=S(=O)(NCC1CC1)c1ccc(Nc2nccc(N3CCCc4cc(O)ccc43)n2)cc1 [SPE_K94659840]	3.48
COc1cc(N2CCC(O)CC2)ccc1Nc1cc(Nc2ccccc2S(=O)(=O)C(C)C)c2cc[nH]c2n1 [SPE_K94853001]	-4.69
CCCN(CCC)S(=O)(=O)c1ccc(C(=O)O)cc1 [SPE_K95237249]	0.643
O=c1oc(-c2ccc(C(F)(F)F)cc2)nn1Cc1cc(Cl)ccc1O [SPE_K95609758]	5.3
COc1cc2c(cc1OC)[C@@H]1CC(=O)[C@@H](CC(C)C)CN1CC2 [SPE_K95739795]	-5.22
O=C(Cn1ccnc1[N+](=O)[O-])NCCO [SPE_K96042922]	-3.79
Nc1ccn(C[C@@H](CO)OCP(=O)(O)O)c(=O)n1 [SPE_K96153583]	-12.6
C[C@H](N)[C@H](O)c1cccc(O)c1 [SPE_K96253961]	-12.2
NC[C@H]1O[C@H](O[C@H]2[C@H](O)[C@@H](O[C@H]3O[C@H](CO)[C@@H](O)[C@H](N)[C@H]3O)[C@H](N)C[C@@H]2N)[C@H](N)C[C@@H]1O [SPE_K96342952]	-3.75
